The text below walks through data of patent US6740634B1, “Sustained release compositions, process for producing the same and utilization thereof” (Takeda Chemical Industries, Ltd., priority 1998, dated 2004).

Read-outs that look alike come from different tables or passages of the source.

The format of this series is physicochemical. On the procedure: To this salt, 0.5 ml of water was added, followed by stirring at room temperature for 4 hours, after which the liquid was filtered through a 0.2 μm filter and quantified by HPLC. The peptide B and 3-hydroxy-2-naphthoic acid concentrations were 2.37 g/l and 0.751 g/l, respectively.

As a reminder, the solubility is the concentration that dissolves in the medium under given conditions. For the setting “water solubility”, `CCNC(=O)[C@@H]1CCCN1C(=O)[C@H](CCCNC(=N)N)NC(=O)[C@H](CC(C)C)NC(=O)[C@@H](CC(C)C)NC(=O)[C@H](Cc1ccc(O)cc1)NC(=O)[C@H](CO)NC(=O)[C@H](Cc1c[nH]c2ccccc12)NC(=O)[C@H](Cc1c[nH]cn1)NC(=O)[C@@H]1CCC(=O)N1` [acetate of peptide B, reference compound] had a solubility of no less than 1000 mg/mL.
Turning to `CCNC(=O)[C@@H]1CCCN1C(=O)[C@H](CCCNC(=N)N)NC(=O)[C@H](CC(C)C)NC(=O)[C@@H](CC(C)C)NC(=O)[C@H](Cc1ccc(O)cc1)NC(=O)[C@H](CO)NC(=O)[C@H](Cc1c[nH]c2ccccc12)NC(=O)[C@H](Cc1c[nH]cn1)NC(=O)[C@@H]1CCC(=O)N1`, the “water solubility relative to the water solubility of the acetate of peptide B” value is “not more than 1/100”. Besides, the solubility (3-hydroxy-2-naphthoic acid concentration in saturated aqueous solution (water solubility of the salt)) was found to be 0.751 mg/mL. The solubility (peptide B concentration in saturated aqueous solution (water solubility of the salt)) is 2.37 mg/mL.
